Measurements reported in ChEMBL document CHEMBL4689842, “EUbOPEN Chemogenomics Library wave 1” (2021).

Tests used:
Format in all cases: toxicity, cell-based
U2OS = assay: Incucyte cell viability with U2OS; conditions: human, 10 µM, compound concentration 10 uM
HEK-293T = assay: Incucyte cell viability with HEK293T; conditions: human, 10 µM, compound concentration 10 uM
Fibroblast = assay: Incucyte cell viability with human fibroblast; conditions: 10 µM, compound concentration 10 uM
[1] = 0 h, replicate number 2, timepoint 0 hours
[2] = 6 h, replicate number 1, timepoint 6 hours
[3] = 12 h, replicate number 1, timepoint 12 hours
[4] = 18 h, replicate number 1, timepoint 18 hours
[5] = 24 h, replicate number 1, timepoint 24 hours
[6] = 0 h, replicate number 1, timepoint 0 hours
[7] = 24 h, replicate number 2, timepoint 24 hours
Also: filed as whole numbers so only -1 and 0 and 1 occur.

| Compound | Growth Rate (U2OS; [1]) | Growth Rate (U2OS; [2]) | Growth Rate (U2OS; [3]) | Growth Rate (U2OS; [4]) | Growth Rate (U2OS; [5]) | Growth Rate (HEK-293T; [6]) | Growth Rate (HEK-293T; [1]) | Growth Rate (HEK-293T; [7]) | Growth Rate (Fibroblast; [1]) | Growth Rate (Fibroblast; [2]) | Growth Rate (Fibroblast; [3]) | Growth Rate (Fibroblast; [4]) | Growth Rate (Fibroblast; [5]) | Growth Rate (U2OS; [6]) | Growth Rate (U2OS; 6 h, replicate number 2, timepoint 6 hours) | Growth Rate (HEK-293T; 12 h, replicate number 2, timepoint 12 hours) |
| --- | --- | --- | --- | --- | --- | --- | --- | --- | --- | --- | --- | --- | --- | --- | --- | --- |
| CN1C(=O)[C@@H](N2CCc3cn(Cc4ccccc4)nc3C2=O)COc2ccccc21 [TP-030-1] | 0 | 1 | 1 | 1 | 1 | 0 | 1 | 1 | 1 | 0 | 0 | 0 | 0 |  |  |  |
| CC[C@@H]1[C@H](F)C(=O)N[C@@H]1COc1nccc2cc(C(N)=O)c(OC)cc12 [ZIMLOVISERTIB] |  | 0 | 0 | 0 | 0 | 0 |  | 1 | 0 | 0 | 0 | 0 | 0 | 0 | 1 | 1 |
